Assays:
Assay type in all cases: in vivo
[1] = tested on: Spodoptera eridania; assay: Southern armyworm (Spodoptera eridania), 2nd instar larvae, foliar spray on lima bean; conditions: 96 h, 4 days after treatment, read-out: mortality in comparison with untreated controls
Procedure: B.9 Southern Armyworm (Spodoptera eridania), 2nd Instar Larvae
The active compounds were formulated by a Tecan liquid handler in 100% cyclohexanone as a 10,000 ppm solution supplied in tubes. The 10,000 ppm solution was serially diluted in 100% cyclohexanone to make interim solutions. These served as stock solutions for which final dilutions were made by the Tecan in 50% acetone:50% water (v/v) into 5 or 10 ml glass vials. A nonionic surfactant (Kinetic®) was included in the solution at a volume of 0.01% (v/v). The vials were then inserted into an automated electrostatic sprayer equipped with an atomizing nozzle for application to plants/insects.
Lima bean plants (variety Sieva) were grown 2 plants to a pot and selected for treatment at the 1st true leaf stage. Test solutions were sprayed onto the foliage by an automated electrostatic plant sprayer equipped with an atomizing spray nozzle. The plants were dried in the sprayer fume hood and then removed from the sprayer. Each pot was placed into perforated plastic bags with a zip closure. About 10 to 11 armyworm larvae were placed into the bag and the bags zipped closed. […] Mortality and reduced feeding were assessed 4 days after treatment, compared to untreated control plants.

[2] = tested on: Myzus persicae; assay: Green peach aphid (Myzus persicae) systemic test, artificial diet under membrane; conditions: 72 h, adult aphids, after 3 days, read-out: mortality in comparison with untreated controls
Text: B.6 Green Peach Aphid (Myzus persicae)
For evaluating control of green peach aphid (Myzus persicae) through systemic means the test unit consisted of 96-well-microtiter plates containing liquid artificial diet under an artificial membrane.
The compounds were formulated using a solution containing 75% v/v water and 25% v/v DMSO. Different concentrations of formulated compounds were pipetted into the aphid diet, using a custom built pipetter, at two replications.
After application, 5-8 adult aphids were placed on the artificial membrane inside the microtiter plate wells. The aphids were then allowed to suck on the treated aphid diet and incubated at about 23±1° C. and about 50±5% relative humidity for 3 days. Aphid mortality and fecundity was then visually assessed.

[3] = tested on: Heliothis virescens; assay: Tobacco budworm (Heliothis virescens) microtiter plate insect diet test; conditions: 120 h, egg and larval mortality after 5 days, read-out: mortality in comparison with untreated controls
Procedure: B.5 Tobacco Budworm (Heliothis virescens)
For evaluating control of tobacco budworm (Heliothis virescens) the test unit consisted of 96-well-microtiter plates containing an insect diet and 15-25 H. virescens eggs.
The compounds were formulated using a solution containing 75% v/v water and 25% v/v DMSO. Different concentrations of formulated compounds were sprayed onto the insect diet at 10 μl, using a custom built micro atomizer, at two replications.
(§1) After application, microtiter plates were incubated at about 28±1° C. and about 80±5% relative humidity for 5 days. Egg and larval mortality was then visually assessed.

[4] = tested on: Plutella xylostella; assay: Diamond back moth (Plutella xylostella) cabbage leaf dip test; conditions: foliar, 3rd instar larvae, 72 hours after treatment, read-out: mortality in comparison with untreated controls
Procedure: B.8 Diamond Back Moth (Plutella xylostella)
The active compound is dissolved at the desired concentration in a mixture of 1:1 (vol:vol) distilled water:aceteone. Surfactant (Kinetic HV) is added at a rate of 0.01% (vol/vol). The test solution is prepared at the day of use.
Leaves of cabbage were dipped in test solution and air-dried. Treated leaves were placed in petri dishes lined with moist filter paper and inoculated with ten 3rd instar larvae. Mortality was recorded 72 hours after treatment. Feeding damages were also recorded using a scale of 0-100%.

[5] = tested on: Nephotettix virescens; assay: Rice green leafhopper (Nephotettix virescens) spray test on rice seedlings; conditions: adults, after 72 hours, read-out: mortality in comparison with untreated controls
Procedure: B.7 Rice Green Leafhopper (Nephotettix virescens)
Rice seedlings were cleaned and washed 24 hours before spraying. The active compounds were formulated in 1:1 acetone:water (vol:vol), and 0.01% vol/vol surfactant (Kinetic HV) was added. Potted rice seedlings were sprayed with 5-6 ml test solution, air dried, covered with Mylar cages cages and inoculated with 10 adults. Treated rice plants were kept at about 28-29° C. and relative humidity of about 50-60%. Percent mortality was recorded after 72 hours.

[6] = tested on: Ceratitis capitata; assay: Mediterranean fruitfly (Ceratitis capitata) microtiter plate insect diet test; conditions: 120 h, egg and larval mortality after 5 days, read-out: mortality in comparison with untreated controls
Procedure: B.4 Mediterranean Fruitfly (Ceratitis capitata)
For evaluating control of Mediterranean fruitfly (Ceratitis capitata) the test unit consisted of microtiter plates containing an insect diet and 50-80 C. capitata eggs.
(§2) The compounds were formulated using a solution containing 75% v/v water and 25% v/v DMSO. Different concentrations of formulated compounds were sprayed onto the insect diet at 5 μl, using a custom built micro atomizer, at two replications.
as §1

[7] = tested on: Dichromothrips corbetti; assay: Orchid thrips (Dichromothrips corbetti) floral-immersion test; conditions: adult thrips, 72 hours after treatment, read-out: mortality in comparison with untreated controls
Procedure: B.2 Orchid Thrips (Dichromothrips Corbetti)
Dichromothrips corbetti adults used for bioassay were obtained from a colony maintained continuously under laboratory conditions. For testing purposes, the test compound is diluted in a 1:1 mixture of acetone:water (vol:vol), plus Kinetic HV at a rate of 0.01% v/v.
Thrips potency of each compound was evaluated by using a floral-immersion technique. All petals of individual, intact orchid flowers were dipped into treatment solution and allowed to dry in Petri dishes. Treated petals were placed into individual resealable plastic along with about 20 adult thrips. All test arenas were held under continuous light and a temperature of about 28° C. for duration of the assay. After 3 days, the numbers of live thrips were counted on each petal. The percent mortality was recorded 72 hours after treatment.

[8] = tested on: Anthonomus grandis; assay: Boll weevil (Anthonomus grandis) microtiter plate insect diet test; conditions: 120 h, egg and larval mortality after 5 days, read-out: mortality in comparison with untreated controls
Procedure: B.1 Boll Weevil (Anthonomus grandis)
For evaluating control of boll weevil (Anthonomus grandis) the test unit consisted of 96-well-microtiter plates containing an insect diet and 5-10 A. grandis eggs.
as §2
After application, microtiter plates were incubated at about 25±1° C. and about 75±5% relative humidity for 5 days. Egg and larval mortality was then visually assessed.

[9] = tested on: Aphis craccivora; assay: Cowpea aphid (Aphis craccivora) spray test on potted cowpea plants; conditions: after 72 hours, read-out: mortality in comparison with untreated controls
Procedure: B.3 Cowpea Aphid (Aphis Craccivora)
The active compound is dissolved at the desired concentration in a mixture of 1:1 (vol:vol) distilled water:acetone. Surfactant (Kinetic HV) is added at a rate of 0.01% (vol/vol). The test solution is prepared at the day of use.
Potted cowpea plants were colonized with approximately 50-100 aphids of various stages by manually transferring a leaf tissue cut from infested plant 24 hours before application. Plants were sprayed after the pest population has been recorded. Treated plants are maintained on light carts at about 28° C. Percent mortality was assessed after 72 hours.

CON=Cc1nn(-c2ccc(Cl)c(Cl)c2)cc1CN1CCC(C#N)CC1 (mixture of isomers) [IA-1, 1-[[1-(3,4-dichlorophenyl)-3-[(E/Z)-methoxyiminomethyl]pyrazol-4-yl]methyl]piperidine-4-carbonitrile]
> 75%: mortality at 300 ppm [1] | mortality at 2500 ppm [2] | mortality at 2500 ppm [3] | mortality at 500 ppm [4] | mortality at 500 ppm [5] | mortality at 2500 ppm [6] | mortality at 500 ppm [7] | mortality at 2500 ppm [8] | mortality at 500 ppm [9]

N#CC1CCN(Cc2cn(-c3ccc(Cl)c(Cl)c3)nc2C=NOCC(F)(F)F)CC1 (mixture of isomers) [IA-2, 1-[[1-(3,4-dichlorophenyl)-3-[(E/Z)-2,2,2-trifluoroethoxyiminomethyl]pyrazol-4-yl]methyl]piperidine-4-carbonitrile]
> 75%: mortality at 300 ppm [1] | mortality at 2500 ppm [3] | mortality at 500 ppm [4] | mortality at 500 ppm [5] | mortality at 2500 ppm [6] | mortality at 500 ppm [7] | mortality at 2500 ppm [8] | mortality at 500 ppm [9]
